Experimental data as given in patent US11382880B2, “Method for improving digestive health” (Brightseed, Inc., priority 2019, dated 2022).

Experiments:
[1] = biological target: T1, HNF4α (Homo sapiens, UniProt P41235); parameters: endogenous in cells; host or cells: T6PNE engineered pancreatic cells; conditions: Lee, et al. (2013); cited from earlier work
T1 sequence (P41235 1-474): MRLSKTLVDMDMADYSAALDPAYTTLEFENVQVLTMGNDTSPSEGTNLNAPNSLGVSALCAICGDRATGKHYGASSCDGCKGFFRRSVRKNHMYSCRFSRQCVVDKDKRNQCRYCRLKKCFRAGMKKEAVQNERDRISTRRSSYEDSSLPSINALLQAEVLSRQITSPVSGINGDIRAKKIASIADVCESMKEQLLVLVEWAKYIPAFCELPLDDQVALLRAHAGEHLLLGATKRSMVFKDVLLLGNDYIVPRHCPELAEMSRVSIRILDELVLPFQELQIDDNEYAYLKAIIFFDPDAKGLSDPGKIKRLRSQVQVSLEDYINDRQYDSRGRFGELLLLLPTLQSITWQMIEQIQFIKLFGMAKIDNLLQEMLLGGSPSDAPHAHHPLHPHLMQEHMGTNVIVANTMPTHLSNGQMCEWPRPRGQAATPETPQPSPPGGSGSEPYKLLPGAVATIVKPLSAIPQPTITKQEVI

[2] = biological target: T1, HNF4α; experiment: Insulin promoter-reporter assay measuring HNF4α activity (T6PNE engineered pancreatic cell); format: cell-based; parameters: endogenous in cells; host or cells: T6PNE engineered pancreatic cells; conditions: for HNF4α modulator activity in screening: screening of predicted plant compounds in the HNF4α assay
Experimental: FIG. 1 illustrates a dose-response analysis of N-trans-caffeoyltyramine, N-trans-feruloyltyramine and p-coumaroyltyramine in an assay measuring insulin promoter activity. Dimethylsulfoxide (DMSO) and alverine (20 μM) were used as negative and positive controls, respectively.
The tyramine containing hydroxycinnamic acid amide of this disclosure are analogs of lead compounds identified in traditional screening assays for agents that modulate known signaling pathways. […] While not wishing to be bound by theory, it is believed that the tyramine containing hydroxycinnamic acid amides of this disclosure increase HNF4α activity as a result of higher affinity for the HNF4α binding site than the natural ligand, palmitic acid, which down regulates HNF4α activity. Accordingly, by increasing HNF4α activity, the compounds of this disclosure are of use in improving heal thy digestive function, thereby addressing the underlying pathogenesis of gastrointestinal disorders such as IBD, UC, and CD. Using the composition of this disclosure, health and well-being are improved and promoted.
Given the role of HNF4α in maintaining a healthy metabolism in humans, test compounds were screened for activity as HNF4α agonists (either direct or indirect effects). Using a known insulin promoter-reporter assay, Kiselyuk and colleagues (2010. J. Biomol. Screen 15(6): 663-70), screened a library of compounds for activity to promote insulin activation. […] The OTC promoter is known to be responsive to HNF4α in transient transfection assays (Inoue, et al. (2002) J. Biol. Chem. 277:25257-65).
Plant compounds in the top 10th percentile of similarity to the 18 target structures were selected and compounds predicted to be potential agonists of HNF4α activity given their chemical structural features were screened in the HNF4α assay. […] Due to hydroxyl derivatization of both phenyl rings, N-transcaffeoyltyramine is less lipophilic and therefore expected to be more bioavailable.

[3] = tested on: HNF4α mRNA; experiment: HNF4α mRNA levels by quantitative PCR; format: cell-based; conditions: FIG. 2
Experimental: FIG. 2 illustrates the effect of N-trans-caffeoyltyramine, N-trans-feruloyltyramine and p-coumaroyltyramine on HNF4α mRNA levels as determined by quantitative PCR. DMSO and alverine (20 μM) were used as negative and positive controls, respectively.
Expression of Insulin and HNF4α. RNA was purified using a RNEASY® chromatographic separation and isolation kits (Qiagen), and converted to cDNA using the gScript™ cDNA SuperMix (Quanta Biosciences). Q-PCR was conducted with cDNA corresponding to 2 μg of RNA using an Optic on Real-Time System (MJ Research) and QPCR SuperMix (BioPioneer). See All mRNA values were normalized to 18S rRNA values and are expressed as fold changes over vehicle-treated control.

[4] = tested on: HNF4α; experiment: Intestinal HNF4α expression in C57BL/6 mice after IP dosing; format: in vivo; conditions: IP twice a day for 14 days
Experimental: Primary Antibodies. HNF4α antibodies were used (#sc-6556, Santa Cruz Biotechnology; Santa Cruz, Calif. and #3113, Cell Signaling Technology; Danvers, Mass.). For fluorescent imaging, samples were incubated with ALEXA FLUOR® 488 green-fluorescent dye or Rhodamine labeled anti-mouse, rabbit or goat and nuclei were counterstained with DAPI (4′,6-diamidino-2-phenylindole). […] were analyzed with a conventional inverted microscope (Olympus, PlanFl 40×/0.60) or with a confocal microscope equipped with a krypton/argon laser.
To confirm the in vivo […] samples were harvested and stained to visualize HNFα expression, ZO-1 and DAPI staining.

[5] = tested on: Intestine; experiment: Histological examination of intestine, gross morphology; format: in vivo; conditions: mice treated with DMSO or N-trans-caffeoyltyramine
Source text: (§1) Intestine from mice treated with DMSO or N-trans-caffeoyltyramine were examined histologically. Gross morphological appearance was unchanged. […] In both, HNF4α was highly expressed in the crypt, with much less being detectable in the villi (see FIG. 4). […] Paneth cells are specialized secretory cells that play a critical role in defenses against intestinal microbes. To that end, they secrete a variety of antimicrobial peptides. Of note, Paneth cells play an important role in IBD pathogenesis. High fat diet has been reported to reduce the number of Paneth cells, and our studies reproduced that finding (see FIG. 4), but the mechanism by which that occurs has not been understood.

[6] = tested on: CaCo-2 cells; experiment: TNF-α induced tight junction damage in CaCo-2 monolayer, ZO-1 staining; format: cell-based; conditions: 200 ng or 300 ng TNF-α
Experimental: TNF-α is an inflammatory cytokine that increases intestinal tight junction permeability. To analyze the effect of N-trans-caffeoyltyramine on tight junctions, 200 ng or 300 ng TNF-α was added to a monolayer of epithelial CaCo-2 cells to induced tight junction damage. After TNF-α exposure, N-trans-caffeoyltyramine was added and tight junction formation was determined by antibody staining for zonula occludens (ZO) −1. […] The CaCo-2 cells was sorted for high TNF-α expression with compromised integrity of tight junctions. Increasing concentration of exogenous TNF-α from 200 ng to 300 ng reduced ZO-1 staining.

[7] = tested on: Paneth cells; experiment: Number of Paneth cells in the intestine of DIO mice; format: in vivo; conditions: DIO mice (high fat diet)
Source text: FIG. 5 illustrates paneth cells are increased in the intestine of DIO mice treated with NCT.
as §1

[8] = tested on: HNF4α; experiment: HNF4α expression in the intestine of DIO mice; format: in vivo; conditions: villi and crypt
Source text: FIG. 4 illustrates HNF4α is increased in the intestine of DIO mice treated with NCT.
as §1

[9] = Bioavailability determination in male C57BL/6 mice; format: in vivo; conditions: mouse, whole blood, IV 2.0 mg/kg, oral 30.0 mg/kg, IP 30 mg/kg, route of the printed value not stated
Experimental: Bioavailability Determinations. Male C57BL/6 mice were administered N-trans-caffeoyl tyramine or N-transferuloyl tyramine via IV, intraperitoneal or oral route (three mice for each route) (Table 2).
A blood sample from each mouse was drawn at 0.25, 0.5, 1, 2, 4, 6 and 24 hours after administration. An 8 μL aliquot of blood was used for analysis. After adding 200 μL of an internal standard comprising 100 ng/mL Labetalol, 100 ng/mL dexamethasone, 100 ng/mL tolbutamide, 100 ng/mL Verapamil, 100 ng/mL Glyburide, and 100 ng/mL Celecoxib in ACN, the mixture was vortex-mixed and centrifuged at 12000 rpm for 15 minutes at 4° C. to pellet precipitated protein. Four μL of the supernatant was injected for LC-MS/MS analysis. Bioavailability (%) was calculated using AUC0-inf (% AUCExtra<20%) or AUC0-last(% AUCExtra>20%) with nominal dose.

[10] = pH Stability Assessment; format: physicochemical; conditions: pH 2, 7.4, 8.5 and 10; 37° C.; 0.5 and 72 hours; HPLC peak area at 280 nm
Experimental: pH Stability Assessment. Individual stock solutions were prepared in DMSO at concentrations of 10 mg/mL. Four different buffer solutions were prepared to achieve solutions with a pH of 2, 7.4, 8.5 and 10. For each pH assay, 5 μL of stock solution was added to 245 μL of buffered solution to a 2 mL tube, vortexed and incubated in a 37° C. water bath. At each timepoint, 50 μL aliquots were taken, neutralized and analyzed via HPLC analysis using a DAD detector at 280 nm. The fold change of the peak area at 280 nm was analyzed for the initial and final timepoint, 0.5 and 72 hours, respectively.

[11] = biological target: T1, HNF4α; parameters: endogenous in cells; host or cells: T6PNE engineered pancreatic cells; conditions: Kiselyuk, et al. (2012); cited from earlier work
[12] = biological target: T1, HNF4α; conditions: cited from earlier work

SMILES: CCN(CCCc1ccccc1)CCCc1ccccc1 [Alverine]
- Activity as HNF4α activators [1]: activity as HNF4α activators

SMILES: CC(Cc1cccc(C(F)(F)F)c1)NCCOC(=O)c1ccccc1 (stereo not shown) [Benfluorex]
- Activity as HNF4α activators [1]: activity as HNF4α activators

SMILES: O=C(/C=C\c1ccc(O)c(O)c1)NCCc1ccc(O)cc1 [N-cis-caffeoyltyramine]
- HNF4α modulator activity in screening [2]: able to act as HNF4α modulators

SMILES: O=C(/C=C/c1ccc(O)cc1)NCCc1ccc(O)c(O)c1 [N-coumaroyldopamine]
- HNF4α gene expression (quantitative PCR) [3]: inactive

SMILES: O=C(/C=C/c1ccc(O)c(O)c1)NCCc1ccc(O)cc1 [N-trans-caffeoyltyramine]
- HNF4α gene expression (quantitative PCR) [3]: upregulated
- HNF4α expression in intestinal lining [4]: induced HNF4α expression in the intestinal lining
- Gross morphological appearance of intestine [5]: unchanged
- Potency in activating HNF4α compared with Alverine ([2]; FIG. 1, alverine 20 μM positive control): roughly an order-of-magnitude more potent than Alverine
- HNF4α modulator activity in screening [2]: able to act as HNF4α modulators
- Effect on TNF-α reduced ZO-1 staining (tight junctions) [6]: reversed the effects of TNF-α on ZO-1
- Number of Paneth cells [7]: complete recovery in the number of Paneth cells
- Number of Paneth cells ([7]; listed as NCT): increased
- HNF4α expression in intestine [8]: large increase in HNF4α expression throughout
- HNF4α expression in intestine ([8]; listed as NCT): increased
- bioavailability [9]: ~11%
- pH Stability [10]: Acid Stable

SMILES: COc1cc(/C=C/C(=O)NCC(O)c2ccc(O)cc2)ccc1O (stereo not drawn) [N-trans-feruloyloctopamine]
- HNF4α gene expression (quantitative PCR) [3]: inactive

SMILES: COc1cc(/C=C/C(=O)NCCc2ccc(O)cc2)ccc1O [N-trans-feruloyltyramine]
- HNF4α gene expression (quantitative PCR) [3]: upregulated
- HNF4α modulator activity in screening [2]: able to act as HNF4α modulators
- bioavailability [9]: ~7%
- pH Stability [10]: Stable

SMILES: COc1cc(/C=C\C(=O)NCCc2ccc(O)cc2)ccc1O [cis-feruloyltyramine]
- HNF4α gene expression (quantitative PCR) [3]: inactive

SMILES: CCN(CCCCc1ccccc1)CCc1ccccc1 [compound 1]
- Insulin activation in insulin promoter-reporter screen [11]: insulin activator
- HNF4α agonistic activity in OTC promoter assay [12]: HNF4α agonistic activity

SMILES: O=C(/C=C/c1ccc(O)cc1)NCCc1ccc(O)cc1 [p-coumaroyltyramine]
- HNF4α gene expression (quantitative PCR) [3]: upregulated
- HNF4α modulator activity in screening [2]: able to act as HNF4α modulators
- pH Stability [10]: Acid Stable

SMILES: O=C(/C=C/c1ccc(O)cc1)NCC(O)c1ccc(O)cc1 (stereo not shown) [pcoumaroyloctopamine]
- HNF4α gene expression (quantitative PCR) [3]: inactive
